# Residues, ends and D or L forms follow the SMILES beside them. *: point of attachment. Cbz = O=C(OCc1ccccc1)*; CH2Cl = ClC*
# Molecular target: recombinant CpLDH protein (Cryptosporidium parvum, UniProt Q9GT92, F198L/K295E/R251K)
row,Structure (SMILES),MEAN CpLDH INHIBITION (%)
1,O=C(CC1(O)C(=O)Nc2c(Cl)cc(Cl)cc21)c1ccc([N+](=O)[O-])cc1 (centres unmarked) [NSC635326],-38.78
2,Br.CN(C)c1nc(=NCc2ccco2)ss1 [NSC622608],-22.44
3,CN=c1sc2c(n1C)C(=O)c1ccccc1C2=O [NSC659501],-27.66
4,Nc1ccc2nc3ccc(=O)cc-3n(-c3ccccc3)c2c1 [NSC31702],-41.86
5,O=C(O)c1ccccc1-c1ccccc1C(=O)Nc1ccc2c(c1)Cc1ccccc1-2 [NSC67690],-56.08
6,C=CC(=O)N1C/C(=C\c2ccccc2)C(=O)/C(=C/c2ccccc2)C1 [NSC632841],-21.11
7,CC1=C(N2CC2)C(=O)C(CO)=C(N2CC2)C1=O [NSC697726],-69.94
8,CC(Cc1ccccc1)NC1=NCCO1 (centres unmarked) [NSC664298],-116.71
9,Cc1nc2c(o1)C(=O)c1ccccc1C2=Nc1ccccc1 [NSC650573],-21.28
10,O=[N+]([O-])c1ccc2c(c1)/C(=N/N=C1c3ccccc3Cc3ccccc31)c1cc([N+](=O)[O-])cc([N+](=O)[O-])c1-2 [NSC658139],-4.51
11,COC(=O)C1CCC(=O)N1C(c1ccc(OC)cc1)c1cc(OC)c(OC)c(OC)c1 (centres unmarked) [NSC673622],-14.54
12,Cl.Nc1ccc2cc3ccc(N)cc3nc2c1 [NSC605756],-35.77
13,O=C(O)c1ccc(Nc2c3ccccc3nc3ccccc23)cc1.[Na+] [NSC235082],-28.09
14,Cc1c2ccc3ccccc3c2c[n+]2ccccc12.[Cl-] [NSC28002],-26.04
15,O=C(CC(O)(C(F)(F)F)C(F)(F)Cl)CC(O)(C(F)(F)F)C(F)(F)Cl (centres unmarked) [NSC659174],-13.23
16,CC(C)(Br)C(=O)C(Br)Br [NSC1027],-2.97
17,CCN(CC)Cc1cc(N=Nc2c(O)ccc3c(N=Nc4ccc(O)c(CN(CC)CC)c4)c(O)ccc23)ccc1O.Cl [NSC359463],-17.14
18,Cc1cccc(C)c1NC(=O)C(=O)C(c1ccccc1Cl)S(=O)(=O)Cc1ccccc1Cl (centres unmarked) [NSC657722],-170.05
19,Cc1ccc(S(=O)(=O)[O-])cc1.Cc1ccc(S(=O)(=O)[O-])cc1.Cn1c(-c2ccc(/C=C/C=N/NC(=O)c3ccc(C(=O)N/N=C/C=C/c4ccc(-c5c[n+]6ccccc6n5C)cc4)cc3)cc2)c[n+]2ccccc12 [NSC603169],-164.45
20,Cc1[nH]c(=O)[nH]c(=O)c1/C=C/C(=O)NC(CO)CC(C)C (centres unmarked) [NSC224117],-0.81
21,CCCCCC(/C=C/[C@@H]1CC(=O)C[C@H]1O[Si](C)(C)C(C)(C)C)OCOCCOC (some centres unmarked) [NSC689228],-5.60
22,Nc1nc(N)c(N=Nc2ccccc2)c(=O)[nH]1 [NSC5200],-51.63
23,O=[N+]([O-])c1ccccc1S(=O)(=O)c1ccccc1[N+](=O)[O-] [NSC633001],-15.73
24,[Mo] [NSC622124],0.01
25,O=NN(CCCl)C(=O)NCc1ccc[n+]([O-])c1 [NSC307454],-54.21

row,Structure (SMILES),MEAN CpLDH INHIBITION (%)
1,Oc1ccc(-c2nc3ccccc3s2)cc1 [NSC33004],-8.80
2,CC(C)CC(NC(=O)OCc1ccccc1)C(=O)NC(Cc1ccccc1)C(=O)CCl (stereo not drawn) [NSC173904] (Cbz-Leu-Phe-CH2Cl; configuration not given here),-56.33
3,CC1=NN(C(=O)c2ccncc2)C(=O)C1N=Nc1ccc(F)cc1 (centres unmarked) [NSC621094],-33.52
4,CO[C@@H]1C[C@@H](C[C@H]2CC[C@H](C)[C@H]([C@@H](C)C(=O)[O-])O2)O[C@]2(O[C@](C)([C@H]3CC[C@@](C)([C@@H]4O[C@@H]([C@H]5O[C@@](O)(CO)[C@H](C)C[C@@H]5C)C[C@@H]4C)O3)C[C@H]2C)[C@@H]1C.[Na+] [NSC292567],-134.14
5,C1CCNCC1.S=C(S)N1CCCCC1 [NSC1906],-58.60
6,COc1ccc(-c2cc(=O)c3c(O)cc(O)cc3o2)cc1OC [NSC128305],-10.13
7,COC(=O)[C@@]12OC[C@]34[C@H]([C@@H](O)[C@@H]1O)[C@@]1(C)CC(=O)C(O)=C(C)[C@@H]1C[C@H]3OC(=O)[C@H](OC(=O)/C=C(\C)C(C)C)[C@@H]24 [NSC165563],-22.46
8,Cc1ccc2c(ccc(C=Cc3ccc(O)c4ncccc34)[n+]2C)c1 [NSC85700],-37.65
9,Cc1ccccc1NC(=O)C(=O)C(c1cnc2ccc([N+](=O)[O-])cc2n1)[N+](=O)[O-] (centres unmarked) [NSC644735],-56.47
10,COc1cccc2c1cc([N+](=O)[O-])c1c(C(=O)O)cc3c(c12)OCO3 [NSC11926],-19.30
11,C[CH2][Ge]([CH2]C)([CH2]C)[O]C(=O)CCC(=O)[O][Ge]([CH2]C)([CH2]C)[CH2]C [NSC653558],-17.98
12,COc1ccc2nc3cc([N+](=O)[O-])ccc3c(NNc3ccccc3)c2c1 [NSC689872],-7.48
13,COc1cc2c(cc1O)N=CC1CCC(O)N1C2=O (centres unmarked) [NSC285223],-56.39
14,CCCn1c(=O)c2ccccc2[n+]2c(-c3ccc([N+](=O)[O-])cc3)csc12.[Br-] [NSC657603],-45.82
15,CCCCC(/C=N/N=C(N)N)CC.Cc1cc(O)c(C(C)C)cc1S(=O)(=O)O [NSC66300],-42.12
16,CCN(CC)c1ccc2cc3ccc(=[N+](CC)CC)cc-3oc2c1.[Cl-] [NSC44690],-28.19
17,O=C1N[C@H]2[C@H](O)[C@H](O)[C@@H](O)[C@H](O)[C@@H]2c2cc3c(c(O)c21)OCO3 [NSC349156],-36.89
18,Cl.Cl.Cl.Cl.NCCCNCCCCNCCCN [NSC69852],-11.66
19,COc1cc(/C=C(\OC(C)=O)c2ccc3c(c2)OCO3)cc(OC)c1OC [NSC647363],-3.74
20,O=C1OC(c2ccccc2)=N/C1=C\c1ccc(N(CCCl)CCCl)cc1 [NSC104117],-18.47
21,C[n+]1ccc(-c2cc[n+](C)cc2)cc1.[Cl-].[Cl-] [NSC263500],-58.44
22,OC[C@H]1O[C@@H](n2cnc3cncnc32)[C@H](O)[C@@H]1O [NSC65423],-32.77
23,CCC12C[N+]3([O-])CCc4c([nH]c5ccccc45)C(C(=O)OC)(c4cc5c(cc4OC)N(C)C4C(O)(C(=O)OC)C(OC(C)=O)C6(CC)C=CCN7CCC54C76)CC(C3)C1O2 (centres unmarked) [NSC304421],-126.27
24,COc1ccc(NC(=O)CC(=O)N2N=C(C)C(N=Nc3ccc(S(=O)(=O)c4ccc(N=NC5C(=O)N(C(=O)CC(=O)Nc6ccc(OC)cc6)N=C5C)cc4)cc3)C2=O)cc1 (centres unmarked) [NSC677392],-119.10
25,CCN1/C(=C/C(C)=C/c2sc3ccccc3[n+]2CC)Sc2ccccc21.[I-] [NSC96932],-8.62

row,Structure (SMILES),MEAN CpLDH INHIBITION (%)
1,CC[C@@]1(O)C(=O)OCc2c1cc1n(c2=O)Cc2cc3c(N)cccc3nc2-1 [NSC629971],-14.81
2,O=C1C=C(N2CCNCC2)C(=O)c2c(O)ccc(O)c21 [NSC658144],-3.51
3,Cc1cc2c(cc1C)[n+](=O)c(C(=O)/C=C/c1ccccc1[N+](=O)[O-])c(C)n2[O-] [NSC621486],-0.42
4,CN1CCN(CN2C(=O)C3C4C=CC(C3C2=O)C2C3C(=O)N(CN5CCN(C)CC5)C(=O)C3C42)CC1 (centres unmarked) [NSC361813],-202.91
5,CC(=O)SC(SC(C)=O)SC(C)=O [NSC637833],-64.71
6,COc1ccc(OC)c2nc3c(C(=O)NCCN(C)C)cccc3nc12.Cl [NSC678917],-41.85
7,N#C/C(=C\c1ccc2ccccc2c1)C(=O)c1ccccc1 [NSC643186],-12.83
8,Nc1nc(SCCc2ccccc2)c2[nH]cnc2n1 [NSC35866],-7.39
9,O=C(NC(=O)c1c(Cl)nc2sccn12)Nc1ccc(Cl)cc1 [NSC633209],-19.92
10,CC[C@@]1(O)C[C@H](O[C@H]2C[C@H](N(C)C)[C@H](O[C@H]3C[C@@H]4O[C@H]5CC(=O)[C@H](C)O[C@H]5O[C@@H]4[C@H](C)O3)[C@H](C)O2)c2c(cc3c(c2O)C(=O)c2c(O)ccc(O)c2C3=O)[C@H]1C(=O)OC [NSC243023],-140.35
11,CC(=O)NC1C(OCc2ccccc2)OC(CO)C(O)C1OC(C)C(=O)NC(C(=O)NC(CCC(=O)NCCCCNc1c2ccccc2nc2cccc([N+](=O)[O-])c12)C(N)=O)C(C)C (centres unmarked) [NSC697468],-5.22
12,C/C=C(\CCC1NCCc2c1[nH]c1ccccc21)[Si](C)(C)C (centres unmarked) [NSC619165],-14.52
13,O=C(CC1(O)C(=O)Nc2c(Cl)ccc(Cl)c21)c1ccc(Cl)cc1Cl (centres unmarked) [NSC635436],-79.39
14,Cc1cccc(NC(=O)/C=C/c2ccc([N+](=O)[O-])cc2)c1 [NSC139109],-11.32
15,Nc1ncnc2c([C@@H]3O[C@H](CO)[C@@H](O)[C@H]3O)[nH]nc12 [NSC102811],-35.09
16,CC1(c2cccc3ccccc23)OC(=O)c2ccccc21 (centres unmarked) [NSC97703],-3.23
17,C/C(=N\NC(=S)N1CCN(C2CCCCCC2)CC1)c1ccccn1 [NSC376265],-34.26
18,Cc1ccc(NC(=O)c2cccc([N+](=O)[O-])c2O)c([N+](=O)[O-])c1 [NSC82025],-16.46
19,COC1CC(C)C(OC)c2cc(O)cc(c2O)NC(=O)/C(C)=C\C=C/C(C)C(OC(N)=O)/C(C)=C\C(C)C1OC (centres unmarked) [NSC330500],-19.04
20,CCOC(=O)Nc1cc2c(c(N)n1)N=C(c1ccccc1)CN2 [NSC330770],-9.40
21,Cc1cc(O)c(/C=N/C(N)=S)c(=O)o1 [NSC657449],-13.90
22,Cc1c2cnccc2c(C)c2c1c1ccccc1n2CCOC(=O)c1ccccc1 [NSC163443],-14.23
23,C1CN(c2nnc(N3CCC3)nn2)C1 [NSC625748],-117.70
24,O=C(CC1(O)C(=O)Nc2c(Cl)cc(Cl)cc21)c1cccc([N+](=O)[O-])c1 (centres unmarked) [NSC635438],-43.53
